Test results from US6673749B1, “Use of phyllocladane diterpenoids for plant growth promotion and alleviation of growth retardant allelochemicals, and method therefor” (Council of Scientific and Industrial Research, priority 2002, dated 2004).

Tests used:
Assay type in all cases: in vivo
Hordeum vulgare = assay: Seed germination and seedling shoot/root growth test in petridishes; details: control = 100%
Outline: (§1)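 Ten seeds per 9.0 cm dish on filter paper wetted with 0.1, 0.01 or 0.001 μM compound solution (ethanol or acetone cosolvent, matched in controls), in triplicate. Incubated 9 days at 25.0±1.0 °C, 90% humidity, 4 hr light/day. Germination and shoot and root length expressed relative to control taken as 100%.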

[1] = system: Trigonella foenum-graecum; assay: as above; details: for Percent (%) germination of seeds in relation to control on 9th day after sowing / Percent (%) root growth of seedlings in relation to control on 9th day after sowing / Percent (%) shoot growth of seedlings in relation to control on 9th day after sowing: Trigonella foenum graecum, control = 100%
Outline: as §1

Triticum aestivum = assay: as above; details: control = 100%
Outline: as §1

Vigna radiata = assay: as above; details: Vigna radiata, control = 100%
Outline: as §1

Hibiscus sabdariffa [2] = assay: Seed germination and seedling growth, comparison with GA3 (Example 4)
Procedure: (§2) 100 ml stalk solutions of 0.1 μM concentration were prepared by dissolving required amounts of various test compounds (depending upon their molecular weights) in minimum amount of ethanol or acetone and adding distilled water. From this stalk solution, 0.01 μM and 0.001 μM concentrations were prepared. Calliterpenone and calliterpenone di acetate was dissolved in 2.0 ml absolute ethanol (Merc), while; calliterpenone monoacetate, isopropylideno calliterpenone and trihydroxy calliterpenone were dissolved in 2.0 ml spectral grade acetone (Ranbaxy). The respective control test solutions of distilled water of each concentration also contained equal amount of absolute ethanol or acetone. For an assay, 10 seeds were placed on Whatman filter paper (moistened with 5.0 ml of test solution in a 9.0 cm diameter petridish (in triplicate). The pteridishes were incubated for 9 days in a germinator, maintained at 25.0±1.0° C. with 90% humidity and 4 hr light/day. At the end of incubation, observations were recorded on the seedlings in terms of germination, shoot and root growth. The data on the length of shoot and root of seedlings and number of seeds germinated in different concentrations of compounds were compared with the control, which was taken as 100%. The data thus obtained were presented in Table-1.
(§3) Effect of calliterpenone and its derivatives on seed germination and seedling growth in Hibiscus sabdariffa and Sesbania cannabina were measured in the similar way as these were measured in Example-1.

Sesbania cannabina [3] = assay: as above
Procedure: as §2, §3

Hibiscus sabdariffa [4] = assay: Antagonistic effect with Artemisia annua seed extract on germination and seedling growth; details: A. annua seed extract (1.3 g seeds/100 ml) alone or mixed 1:1 with 0.01 μm compound, control = 100%
Procedure: (§4) On the other hand, it is evident from Exp. 1-4 that phyllocladane diterpenenoids have produced germination and growth promoting activities on various plant species. To find out the combined effect of A. annua extract and phyllocladane diterpenoides on the germination and seedling growth of different plant species, 1:1 ratio of these compounds and A.annua extract were tested in the present experiment. For this, Hibiscus sabdariffa and Sesbania cannabina seeds were germinated in A.annua seed extract and solutions prepared by mixing this extract with 0.01 μm calliterpenone and calliterpenone mono-acetate respectively (Table 7). For the preparation of A.annua extract, 1.3 g seeds were soaked in 100 ml of distilled water for 24 hrs for testing on H. sabdariffa. Since, at this concentration, seeds of this species have shown 69% mortality which may be taken as good indicator. This effect was also recorded in S.cannabina. Since, in this case, seeds were almost half in weight as compared to the seeds of H. sabdariffa, accordingly, 0.65 g A. annua seeds were soaked in 100 ml of distilled water for 24 hrs to produce identical constraints in S. cannabina. For control, seeds were germinated in distilled water and all the observations were compared with it. […] Therefore, calliterpenone and its derivatives can be used to nullify the effects of other growth retardants/allelochemicals in the fields for their reclamation.

Sesbania cannabina [5] = assay: as above; details: A. annua seed extract (0.65 g seeds/100 ml) alone or mixed 1:1 with 0.01 μm compound, control = 100%
Procedure: as §4

CC1(C)C(=O)CC[C@@]2(C)[C@H]1CC[C@@]13C[C@H](CC[C@@H]12)[C@@](O)(CO)C3 [Calliterpenone, 16α, 17 dihydroxy phyllocladan-3 one]
Percent (%) germination of seeds in relation to control on 9th day after sowing (Hordeum vulgare; 0.001 μM): 100%
Percent (%) root growth of seedlings in relation to control on 9th day after sowing (Hordeum vulgare; 0.001 μM): 116%
Percent (%) shoot growth of seedlings in relation to control on 9th day after sowing (Hordeum vulgare; 0.001 μM): 118%
Percent (%) germination of seeds in relation to control on 9th day after sowing (Hordeum vulgare; 0.01 μM): 100%
Percent (%) root growth of seedlings in relation to control on 9th day after sowing (Hordeum vulgare; 0.01 μM): 116%
Percent (%) shoot growth of seedlings in relation to control on 9th day after sowing (Hordeum vulgare; 0.01 μM): 103%
Percent (%) germination of seeds in relation to control on 9th day after sowing (Hordeum vulgare; 0.1 μM): 100%
Percent (%) root growth of seedlings in relation to control on 9th day after sowing (Hordeum vulgare; 0.1 μM): 82%
Percent (%) shoot growth of seedlings in relation to control on 9th day after sowing (Hordeum vulgare; 0.1 μM): 102%
Percent (%) germination of seeds in relation to control on 9th day after sowing ([1]; 0.001 μM): 113%
Percent (%) root growth of seedlings in relation to control on 9th day after sowing ([1]; 0.001 μM): 141%
Percent (%) shoot growth of seedlings in relation to control on 9th day after sowing ([1]; 0.001 μM): 121%
Percent (%) germination of seeds in relation to control on 9th day after sowing ([1]; 0.01 μM): 125%
Percent (%) root growth of seedlings in relation to control on 9th day after sowing ([1]; 0.01 μM): 164%
Percent (%) shoot growth of seedlings in relation to control on 9th day after sowing ([1]; 0.01 μM): 130%
Percent (%) germination of seeds in relation to control on 9th day after sowing ([1]; 0.1 μM): 113%
Percent (%) root growth of seedlings in relation to control on 9th day after sowing ([1]; 0.1 μM): 150%
Percent (%) shoot growth of seedlings in relation to control on 9th day after sowing ([1]; 0.1 μM): 121%
Seed germination as compared to 100% in control ([1]; Trigonella foenum-graceum, concentration not specified): 113%
Percent (%) germination of seeds in relation to control on 9th day after sowing (Triticum aestivum; 0.001 μM): 100%
Percent (%) root growth of seedlings in relation to control on 9th day after sowing (Triticum aestivum; 0.001 μM): 136%
Percent (%) shoot growth of seedlings in relation to control on 9th day after sowing (Triticum aestivum; 0.001 μM): 105%
Percent (%) germination of seeds in relation to control on 9th day after sowing (Triticum aestivum; 0.01 μM): 100%
Percent (%) root growth of seedlings in relation to control on 9th day after sowing (Triticum aestivum; 0.01 μM): 80%
Percent (%) shoot growth of seedlings in relation to control on 9th day after sowing (Triticum aestivum; 0.01 μM): 100%
Percent (%) germination of seeds in relation to control on 9th day after sowing (Triticum aestivum; 0.1 μM): 100%
Percent (%) root growth of seedlings in relation to control on 9th day after sowing (Triticum aestivum; 0.1 μM): 80%
Percent (%) shoot growth of seedlings in relation to control on 9th day after sowing (Triticum aestivum; 0.1 μM): 95%
Percent (%) germination of seeds in relation to control on 9th day after sowing (Vigna radiata; 0.001 μM): 250%
Percent (%) root growth of seedlings in relation to control on 9th day after sowing (Vigna radiata; 0.001 μM): 87%
Percent (%) shoot growth of seedlings in relation to control on 9th day after sowing (Vigna radiata; 0.001 μM): 121%
Percent (%) germination of seeds in relation to control on 9th day after sowing (Vigna radiata; 0.01 μM): 150%
Percent (%) root growth of seedlings in relation to control on 9th day after sowing (Vigna radiata; 0.01 μM): 138%
Percent (%) shoot growth of seedlings in relation to control on 9th day after sowing (Vigna radiata; 0.01 μM): 134%
Percent (%) germination of seeds in relation to control on 9th day after sowing (Vigna radiata; 0.1 μM): 150%
Percent (%) root growth of seedlings in relation to control on 9th day after sowing (Vigna radiata; 0.1 μM): 76%
Percent (%) shoot growth of seedlings in relation to control on 9th day after sowing (Vigna radiata; 0.1 μM): 128%
Germination as compared to respective control (Hibiscus sabdariffa [2]; 0.001 μM): 133%
Germination compared with GA3 (Hibiscus sabdariffa [2]; 0.001 μM): 133%
Root growth as compared to respective control (Hibiscus sabdariffa [2]; 0.001 μM): 157%
Seed Ger. (Hibiscus sabdariffa [2]; 0.001 μM): 4
Shoot growth as compared to GA3 (100%) (Hibiscus sabdariffa [2]; 0.001 μM): 110%
Shoot growth as compared to respective control (Hibiscus sabdariffa [2]; 0.001 μM): 182%
Root Growth (mm) 3rd Day (Hibiscus sabdariffa [2]; 0.001 μM): 12.6 mm
Shoot growth 3rd Day (Hibiscus sabdariffa [2]; 0.001 μM): 27.1
Root Growth (mm) 6th Day (Hibiscus sabdariffa [2]; 0.001 μM): 28.6 mm
Shoot growth 6th Day (Hibiscus sabdariffa [2]; 0.001 μM): 61.0
Root Growth (mm) 9th Day (Hibiscus sabdariffa [2]; 0.001 μM, 9th day): 33.4 mm
Root growth as compared to GA3 taken as 100% (Hibiscus sabdariffa [2]; 0.001 μM, 9th day): 134%
Shoot growth 9th Day (Hibiscus sabdariffa [2]; 0.001 μM, 9th day): 94.6
Seed Ger. (Hibiscus sabdariffa [2]; 0.01 μM): 2
Root Growth (mm) 3rd Day (Hibiscus sabdariffa [2]; 0.01 μM): 17.0 mm
Shoot growth 3rd Day (Hibiscus sabdariffa [2]; 0.01 μM): 39.8
Root Growth (mm) 6th Day (Hibiscus sabdariffa [2]; 0.01 μM): 19.2 mm
Shoot growth 6th Day (Hibiscus sabdariffa [2]; 0.01 μM): 78.0
Root Growth (mm) 9th Day (Hibiscus sabdariffa [2]; 0.01 μM, 9th day): 25.8 mm
Shoot growth 9th Day (Hibiscus sabdariffa [2]; 0.01 μM, 9th day): 85.0
Seed Ger. (Hibiscus sabdariffa [2]; 0.1 μM): 2
Root Growth (mm) 3rd Day (Hibiscus sabdariffa [2]; 0.1 μM): 14.0 mm
Shoot growth 3rd Day (Hibiscus sabdariffa [2]; 0.1 μM): 13.6
Root Growth (mm) 6th Day (Hibiscus sabdariffa [2]; 0.1 μM): 21.5 mm
Shoot growth 6th Day (Hibiscus sabdariffa [2]; 0.1 μM): 52.5
Root Growth (mm) 9th Day (Hibiscus sabdariffa [2]; 0.1 μM, 9th day): 23.0 mm
Shoot growth 9th Day (Hibiscus sabdariffa [2]; 0.1 μM, 9th day): 72.5
Germination as compared to respective control (Sesbania cannabina [3]; 0.001 μM): 150%
Germination compared with GA3 (Sesbania cannabina [3]; 0.001 μM): 150%
Root growth as compared to respective control (Sesbania cannabina [3]; 0.001 μM): 119%
Seed Ger. (Sesbania cannabina [3]; 0.001 μM): 3
Shoot growth as compared to GA3 (100%) (Sesbania cannabina [3]; 0.001 μM): 104%
Shoot growth as compared to respective control (Sesbania cannabina [3]; 0.001 μM): 120%
Root Growth (mm) 3rd Day (Sesbania cannabina [3]; 0.001 μM): 30.0 mm
Shoot growth 3rd Day (Sesbania cannabina [3]; 0.001 μM): 17.0
Root Growth (mm) 6th Day (Sesbania cannabina [3]; 0.001 μM): 33.6 mm
Shoot growth 6th Day (Sesbania cannabina [3]; 0.001 μM): 86.2
Root Growth (mm) 9th Day (Sesbania cannabina [3]; 0.001 μM, 9th day): 43.4 mm
Root growth as compared to GA3 taken as 100% (Sesbania cannabina [3]; 0.001 μM, 9th day): 109%
Shoot growth 9th Day (Sesbania cannabina [3]; 0.001 μM, 9th day): 108.2
Seed Ger. (Sesbania cannabina [3]; 0.01 μM): 3
Root Growth (mm) 3rd Day (Sesbania cannabina [3]; 0.01 μM): 14.5 mm
Shoot growth 3rd Day (Sesbania cannabina [3]; 0.01 μM): 14.2
Root Growth (mm) 6th Day (Sesbania cannabina [3]; 0.01 μM): 21.0 mm
Shoot growth 6th Day (Sesbania cannabina [3]; 0.01 μM): 48.8
Root Growth (mm) 9th Day (Sesbania cannabina [3]; 0.01 μM, 9th day): 34.8 mm
Shoot growth 9th Day (Sesbania cannabina [3]; 0.01 μM, 9th day): 67.3
Seed Ger. (Sesbania cannabina [3]; 0.1 μM): 4
Root Growth (mm) 3rd Day (Sesbania cannabina [3]; 0.1 μM): 7.3 mm
Shoot growth 3rd Day (Sesbania cannabina [3]; 0.1 μM): 10.3
Root Growth (mm) 6th Day (Sesbania cannabina [3]; 0.1 μM): 16.0 mm
Shoot growth 6th Day (Sesbania cannabina [3]; 0.1 μM): 39.3
Root Growth (mm) 9th Day (Sesbania cannabina [3]; 0.1 μM, 9th day): 24.8 mm
Shoot growth 9th Day (Sesbania cannabina [3]; 0.1 μM, 9th day): 61.5
Percent (%) germination in relation to control on the 9th day after sowing (Hibiscus sabdariffa [4]): nullified the germination retarding effect
Percent (%) seedling growth, Root, in relation to control on the 9th day after sowing (Hibiscus sabdariffa [4]): 150%
Percent (%) seedling growth, Stem, in relation to control on the 9th day after sowing (Hibiscus sabdariffa [4]): 130%
Percent (%) germination in relation to control on the 9th day after sowing (Sesbania cannabina [5]): no improvement in seed germination
Percent (%) seedling growth, Root, in relation to control on the 9th day after sowing (Sesbania cannabina [5]): 225%
Percent (%) seedling growth, Stem, in relation to control on the 9th day after sowing (Sesbania cannabina [5]): 144%
